Assay results as given in patent US20170130064A1, “NOVEL POLYSILOXANE-BASED FOULING-RELEASE COATS COMPRISING POLY(OXYALKYLENE)-MODIFIED ALCOHOLS” (HEMPEL A/S, priority 2014, published 2017).
Marks after values point to notes of the source that are not given here.

experiment: Surface tension above critical micelle concentration in water (pendant drop method); assay type: physicochemical; conditions: 5 wt % of the compound in demineralized water, picture 5 seconds after drop
Description: The surface tension of a liquid/air interface can be determined by the “pendant drop method” as described in “Encyclopedia of Surface and Colloid Science” by Marcel Dekker, 2002.
Samples were prepared as 5 wt % of the compound in demineralized water mixed in a 50 mL PE bottle. At 5 wt % it is ensured that concentrations are well above the critical micelle concentration. The samples were left over-night on a shaking table to ensure saturation and/or mixing. The measurements by “pendant drop method” were performed with DataPhysics OCA-15 pus, Dynamic Contact Angle, using software SCA202 V 4.5.8. The needle was a Disposable needle SNP-D 165/137, and the volume drop was 15 microliters.
The picture from which the surface tension is calculated is taken 5 seconds after the drop is forced out of the syringe.

| Surface tension | Substance |
| --- | --- |
| 43 mN/m | PEG-6 stearate |
| 35 mN/m | PEG-12 stearate |
| 36 mN/m | PEG-20 oleyl ether |
| 43 mN/m | PEG-20 sorbitan monostearate |

| Substance | Surface tension |
| --- | --- |
| PEG-12 nonylphenol, branched | 32 mN/m |

experiment: not given; conditions: From supplier data sheet; cited from earlier work

| Substance | Surface tension |
| --- | --- |
| PEG-6 decyl alcohol | 26.6* mN/m |
| PEG-7 lauryl alcohol | 29* mN/m |
| PEG-8 branched C12-C14 secondary alcohol | 27* mN/m |
| PEG-11 branched C12-C14 secondary alcohol | 30* mN/m |
| PEG-22 oleyl alcohol | 44* mN/m |
